# pIC50: −log10 of the molar value.
# Target: PIK3CG (human) (UniProt P48736)
# Test: Inhibition of PIK3CG Kinase Activity
# PIK3CG (human), sequence (P48736 whole entry, looked up): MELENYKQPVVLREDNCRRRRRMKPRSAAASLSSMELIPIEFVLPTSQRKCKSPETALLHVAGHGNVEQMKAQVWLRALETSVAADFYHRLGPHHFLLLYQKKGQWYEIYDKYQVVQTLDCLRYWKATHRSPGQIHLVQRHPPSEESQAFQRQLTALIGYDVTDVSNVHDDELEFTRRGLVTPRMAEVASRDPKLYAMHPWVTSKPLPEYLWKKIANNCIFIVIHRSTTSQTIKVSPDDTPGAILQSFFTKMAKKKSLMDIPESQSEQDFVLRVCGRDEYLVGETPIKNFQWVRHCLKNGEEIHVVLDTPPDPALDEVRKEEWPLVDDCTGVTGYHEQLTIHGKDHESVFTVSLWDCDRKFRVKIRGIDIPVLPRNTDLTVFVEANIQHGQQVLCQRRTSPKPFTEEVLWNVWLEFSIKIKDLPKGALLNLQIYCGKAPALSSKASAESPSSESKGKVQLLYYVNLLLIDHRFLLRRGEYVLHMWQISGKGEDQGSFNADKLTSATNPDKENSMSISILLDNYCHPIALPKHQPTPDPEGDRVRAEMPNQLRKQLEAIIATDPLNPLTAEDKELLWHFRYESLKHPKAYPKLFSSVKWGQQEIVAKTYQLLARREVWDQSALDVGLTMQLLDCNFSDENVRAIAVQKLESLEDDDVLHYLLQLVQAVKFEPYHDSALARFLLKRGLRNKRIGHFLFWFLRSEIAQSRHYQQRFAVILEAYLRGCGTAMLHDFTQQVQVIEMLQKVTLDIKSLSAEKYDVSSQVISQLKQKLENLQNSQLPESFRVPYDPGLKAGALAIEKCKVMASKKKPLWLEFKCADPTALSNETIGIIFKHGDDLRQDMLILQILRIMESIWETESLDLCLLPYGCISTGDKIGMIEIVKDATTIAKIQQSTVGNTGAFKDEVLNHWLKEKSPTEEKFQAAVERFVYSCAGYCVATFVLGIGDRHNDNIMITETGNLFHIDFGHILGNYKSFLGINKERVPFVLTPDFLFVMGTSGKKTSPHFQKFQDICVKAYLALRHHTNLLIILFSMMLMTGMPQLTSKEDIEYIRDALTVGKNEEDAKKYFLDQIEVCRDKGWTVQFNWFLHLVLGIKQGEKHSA
row,SMILES,pIC50
1,Cc1nc[nH]c1-c1cccc(CNC(=O)Nc2nc3c(s2)-c2c(cnn2-c2ccccc2Cl)C3)c1,> 6.10
2,CN1CCC(CNC(=O)Nc2nc3c(s2)-c2c(cnn2-c2ccccc2Cl)C3)CC1,> 6.10
3,CCN1CCC[C@@H]1CNC(=O)Nc1nc2c(s1)-c1c(cnn1-c1ccccc1Cl)C2,> 6.10
4,CN(Cc1ccco1)C(=O)Nc1nc2c(s1)-c1c(cnn1-c1ccccc1C(F)(F)F)C2,> 6.10
5,Cc1ccc(CN2CC(NC(=O)Nc3nc4c(s3)-c3c(cnn3-c3ccccc3Cl)C4)CC2=O)cc1 (configuration not stated),> 6.10
6,CC(C)(C)OC(=O)CCNC(=O)Nc1nc2c(s1)-c1c(cnn1-c1ccccc1Br)C2,> 6.10
7,CC(C)(C)c1cc(CNC(=O)Nc2nc3c(s2)-c2c(cnn2-c2ccccc2C(F)(F)F)C3)[nH]n1,> 6.10
8,Cc1cc(-c2cccnc2)n(CCNC(=O)Nc2nc3c(s2)-c2c(cnn2-c2ccccc2C(F)(F)F)C3)n1,> 6.10
9,CN1CCC(O)C2(CCCN(C(=O)Nc3nc4c(s3)-c3c(cnn3-c3ccccc3Cl)C4)C2)C1 (configuration not stated),> 6.10
10,O=C(NCCN1CCCC1)Nc1nc2c(s1)-c1c(cnn1-c1ccccc1Br)C2,> 6.10
11,O=C(NCc1ccccc1N1CCCCC1)Nc1nc2c(s1)-c1c(cnn1-c1ccccc1Cl)C2,> 6.10
12,NC(=O)Nc1nc2c(s1)-c1c(cnn1-c1cccc(F)c1C(F)(F)F)C2,> 6.10
13,CC1CC(c2ccc(O)cc2)CN1C(=O)Nc1nc2c(s1)-c1c(cnn1-c1ccccc1Cl)C2 (configuration not stated),> 6.10
14,CCCCNC(=O)Nc1nc2c(s1)-c1c(cnn1-c1ccccc1C(F)(F)F)C2,> 6.10
15,NC(=O)c1cccc(CNC(=O)Nc2nc3c(s2)-c2c(cnn2-c2ccccc2C(F)(F)F)C3)c1,> 6.10
16,CC(=O)NC1CCN(C(=O)Nc2nc3c(s2)-c2c(cnn2-c2ccccc2Cl)C3)C1 (configuration not stated),> 6.10
17,CC(C)(C)OC(=O)N1CCCCC1CNC(=O)Nc1nc2c(s1)-c1c(cnn1-c1ccccc1Cl)C2 (configuration not stated),> 6.10
18,CC(C)c1cnc(CCNC(=O)Nc2nc3c(s2)-c2c(cnn2-c2ccccc2C(F)(F)F)C3)o1,> 6.10
19,O=C(NCc1ccccc1)Nc1nc2c(s1)-c1c(cnn1-c1ccccc1C(F)(F)F)C2,> 6.10
20,NC(=O)Nc1nc2c(s1)-c1c(cnn1-c1cc(Cl)ccc1Cl)C2,> 6.10
21,Cc1cc(-c2cccnc2)nn1CCNC(=O)Nc1nc2c(s1)-c1c(cnn1-c1ccccc1C(F)(F)F)C2,> 6.10

row,SMILES,pIC50
1,CC(C)c1nnc(CCNC(=O)Nc2nc3c(s2)-c2c(cnn2-c2ccccc2Cl)C3)o1,> 6.10
2,O=C(Nc1nc2c(s1)-c1c(cnn1-c1ccccc1Cl)C2)N1CCC(N2CCNC2=O)CC1,> 6.10
3,N#Cc1ccc(CNC(=O)Nc2nc3c(s2)-c2c(cnn2-c2ccccc2C(F)(F)F)C3)s1,> 6.10
4,Nc1cc(CCNC(=O)Nc2nc3c(s2)-c2c(cnn2-c2ccccc2C(F)(F)F)C3)nn1C1CCCC1,> 6.10
5,NC(=O)c1cccc(CNC(=O)Nc2nc3c(s2)-c2c(cnn2-c2ccccc2Cl)C3)c1,> 6.10
6,CC(C)c1cnc(CCNC(=O)Nc2nc3c(s2)-c2c(cnn2-c2ccccc2Cl)C3)o1,> 6.10
7,O=C(NCc1cccc(C(=O)NC2CCCCC2)c1)Nc1nc2c(s1)-c1c(cnn1-c1ccccc1Cl)C2,> 6.10
8,O=C1CCC(NC(=O)Nc2nc3c(s2)-c2c(cnn2-c2ccccc2Cl)C3)C(c2ccccc2)N1 (configuration not stated),> 6.10
9,CCc1cnc(CCNC(=O)Nc2nc3c(s2)-c2c(cnn2-c2cc(Cl)ccc2Cl)C3)o1,> 6.10
10,CCNC(=O)Nc1nc2c(s1)-c1c(cnn1-c1ccccc1C(F)(F)F)C2,> 6.10
11,CC(C)(C)OC(=O)NCc1ccccc1NC(=O)Nc1nc2c(s1)-c1c(cnn1-c1ccccc1Cl)C2,> 6.10
12,CCCn1cnc(CCNC(=O)Nc2nc3c(s2)-c2c(cnn2-c2ccccc2Cl)C3)c1,> 6.10
13,O=C(NCCc1cccnc1)Nc1nc2c(s1)-c1c(cnn1-c1ccccc1Cl)C2,> 6.10
14,CCc1noc(CCNC(=O)Nc2nc3c(s2)-c2c(cnn2-c2ccccc2C(F)(F)F)C3)n1,> 6.10
15,Cn1ccc(CNC(=O)Nc2nc3c(s2)-c2c(cnn2-c2ccccc2C(F)(F)F)C3)n1,> 6.10
16,CCCn1cnc(CCNC(=O)Nc2nc3c(s2)-c2c(cnn2-c2ccccc2C(F)(F)F)C3)c1,> 6.10
17,O=C(NCCc1nc(C2CC2)no1)Nc1nc2c(s1)-c1c(cnn1-c1ccccc1Cl)C2,> 6.10
18,O=C(NCCc1nc(C2CC2)no1)Nc1nc2c(s1)-c1c(cnn1-c1ccccc1C(F)(F)F)C2,> 6.10
19,CCn1cnc(CCNC(=O)Nc2nc3c(s2)-c2c(cnn2-c2cc(Cl)ccc2Cl)C3)c1,> 6.10
20,Cc1cc(C2CCCCC2)n(CCNC(=O)Nc2nc3c(s2)-c2c(cnn2-c2ccccc2C(F)(F)F)C3)n1,> 6.10
21,CN(Cc1cnn(C)c1)C(=O)Nc1nc2c(s1)-c1c(cnn1-c1ccccc1C(F)(F)F)C2,> 6.10

row,SMILES,pIC50
1,CCc1cc(=O)n(CCNC(=O)Nc2nc3c(s2)-c2c(cnn2-c2ccccc2C(F)(F)F)C3)[nH]1,> 6.10
2,O=C1CC[C@H](NC(=O)Nc2nc3c(s2)-c2c(cnn2-c2ccccc2Cl)C3)CN1,> 6.10
3,O=C(NCCn1nc(C(F)(F)F)cc1-c1ccco1)Nc1nc2c(s1)-c1c(cnn1-c1ccccc1C(F)(F)F)C2,> 6.10
4,CCc1cnc(CCNC(=O)Nc2nc3c(s2)-c2c(cnn2-c2ccccc2Br)C3)o1,> 6.10
5,CC(C)(CNc1ccc(C(C)(C)C)cc1)NC(=O)Nc1nc2c(s1)-c1c(cnn1-c1ccccc1Cl)C2,> 6.10
6,CCOC(=O)c1ccc(CNC(=O)Nc2nc3c(s2)-c2c(cnn2-c2ccccc2C(F)(F)F)C3)o1,> 6.10
7,CC(C)Cn1nc(CCNC(=O)Nc2nc3c(s2)-c2c(cnn2-c2ccccc2C(F)(F)F)C3)cc1N,> 6.10
8,CCCNC(=O)Nc1nc2c(s1)-c1c(cnn1-c1cc(F)ccc1C(F)(F)F)C2,> 6.10
9,O=C(NCc1ccco1)Nc1nc2c(s1)-c1c(cnn1-c1ccccc1C(F)(F)F)C2,> 6.10
10,CCc1noc(CCNC(=O)Nc2nc3c(s2)-c2c(cnn2-c2ccccc2Cl)C3)n1,> 6.10
11,CCN1CCC2(CCN(C(=O)Nc3nc4c(s3)-c3c(cnn3-c3ccccc3Cl)C4)C2)C1 (configuration not stated),> 6.10
12,CC(C)(C)OC(=O)CCNC(=O)Nc1nc2c(s1)-c1c(cnn1-c1ccccc1Cl)C2,> 6.10
13,O=C(NCc1ncc[nH]1)Nc1nc2c(s1)-c1c(cnn1-c1ccccc1Cl)C2,> 6.10
14,NC(=O)Nc1nc2c(s1)-c1c(cnn1-c1ccccc1Br)C2,> 6.10
15,Cc1c[nH]c(CCNC(=O)Nc2nc3c(s2)-c2c(cnn2-c2ccccc2Cl)C3)n1,> 6.10
16,O=C(NCc1ccncc1)Nc1nc2c(s1)-c1c(cnn1-c1ccccc1C(F)(F)F)C2,> 6.10
17,CCc1csc(CCNC(=O)Nc2nc3c(s2)-c2c(cnn2-c2ccccc2C(F)(F)F)C3)n1,> 6.10
18,O=C(Nc1nc2c(s1)-c1c(cnn1-c1ccccc1Cl)C2)N1CCCCC1c1nc2ccccc2[nH]1 (configuration not stated),> 6.10
19,O=C(NCc1ccoc1)Nc1nc2c(s1)-c1c(cnn1-c1ccccc1C(F)(F)F)C2,> 6.10
20,CC(C)(C)CCNC(=O)Nc1nc2c(s1)-c1c(cnn1-c1ccccc1Cl)C2,> 6.10

# Next, values leading:
row,pIC50,SMILES
1,> 6.10,CC(C)(C)OC(=O)N1CCC[C@H]1CNC(=O)Nc1nc2c(s1)-c1c(cnn1-c1ccccc1C(F)(F)F)C2
2,> 6.10,Cn1nc(CNC(=O)Nc2nc3c(s2)-c2c(cnn2-c2ccccc2C(F)(F)F)C3)cc1O
3,> 6.10,Nc1cc(CCNC(=O)Nc2nc3c(s2)-c2c(cnn2-c2ccccc2C(F)(F)F)C3)[nH]n1
4,> 6.10,CCCNC(=O)Nc1nc2c(s1)-c1c(cnn1-c1ccccc1Br)C2
5,> 6.10,O=C(NCc1nccs1)Nc1nc2c(s1)-c1c(cnn1-c1ccccc1C(F)(F)F)C2
6,> 6.10,Cc1onc(-c2ccccc2)c1CNC(=O)Nc1nc2c(s1)-c1c(cnn1-c1ccccc1C(F)(F)F)C2
7,> 6.10,CC(C)(C)c1cc(N)n(CCNC(=O)Nc2nc3c(s2)-c2c(cnn2-c2ccccc2C(F)(F)F)C3)n1
8,> 6.10,CCN1CCC[C@H]1CNC(=O)Nc1nc2c(s1)-c1c(cnn1-c1ccccc1Cl)C2
9,> 6.10,CCn1cnc(CCNC(=O)Nc2nc3c(s2)-c2c(cnn2-c2cccc(F)c2C(F)(F)F)C3)c1
10,> 6.10,O=C(NCc1cc(C2CC2)n[nH]1)Nc1nc2c(s1)-c1c(cnn1-c1ccccc1Br)C2
11,> 6.10,Cn1cccc1CCNC(=O)Nc1nc2c(s1)-c1c(cnn1-c1ccccc1Cl)C2
12,> 6.10,O=C(NCc1ccn[nH]1)Nc1nc2c(s1)-c1c(cnn1-c1ccccc1C(F)(F)F)C2
13,> 6.10,O=C(NCC1CCC(N2CCNC2=O)CC1)Nc1nc2c(s1)-c1c(cnn1-c1ccccc1Cl)C2 (configuration not stated)
14,> 6.10,CNC(=O)Nc1nc2c(s1)-c1c(cnn1-c1cccc(F)c1C(F)(F)F)C2
15,> 6.10,Cc1cc(CNC(=O)Nc2nc3c(s2)-c2c(cnn2-c2ccccc2C(F)(F)F)C3)nn1C
16,> 6.10,CCc1nnc(CCNC(=O)Nc2nc3c(s2)-c2c(cnn2-c2ccccc2C(F)(F)F)C3)o1
17,> 6.10,CNC(=O)Nc1nc2c(s1)-c1c(cnn1-c1ccccc1C(F)(F)F)C2
18,> 6.10,Cc1cc(-c2ccccc2)n(CCNC(=O)Nc2nc3c(s2)-c2c(cnn2-c2ccccc2C(F)(F)F)C3)n1
19,> 6.10,O=C(NCC1CC1)Nc1nc2c(s1)-c1c(cnn1-c1ccccc1Cl)C2
20,> 6.10,CN(Cc1cccs1)C(=O)Nc1nc2c(s1)-c1c(cnn1-c1ccccc1C(F)(F)F)C2
21,> 6.10,CC(C)(C)OC(=O)NCC1CCCN1C(=O)Nc1nc2c(s1)-c1c(cnn1-c1ccccc1Cl)C2 (configuration not stated)
22,> 6.10,CC(C)(C)OC(=O)Nc1cccc(CNC(=O)Nc2nc3c(s2)-c2c(cnn2-c2ccccc2Cl)C3)c1
23,> 6.10,Nc1cc(CNC(=O)Nc2nc3c(s2)-c2c(cnn2-c2ccccc2C(F)(F)F)C3)nn1-c1ccccc1
24,> 6.10,Cc1cc(C)n(CCNC(=O)Nc2nc3c(s2)-c2c(cnn2-c2ccccc2C(F)(F)F)C3)n1
25,> 6.10,CC(C)(C)n1nc(CNC(=O)Nc2nc3c(s2)-c2c(cnn2-c2ccccc2C(F)(F)F)C3)cc1N
26,> 6.10,Cc1nn(C)cc1CNC(=O)Nc1nc2c(s1)-c1c(cnn1-c1ccccc1Cl)C2
27,> 6.10,Cc1cc(-c2ccco2)n(CCNC(=O)Nc2nc3c(s2)-c2c(cnn2-c2ccccc2C(F)(F)F)C3)n1
28,> 6.10,CC(C)NC(=O)Nc1nc2c(s1)-c1c(cnn1-c1ccccc1Br)C2
29,> 6.10,CC(C)CCNC(=O)Nc1nc2c(s1)-c1c(cnn1-c1ccccc1Cl)C2
30,> 6.10,Nc1cc(CCNC(=O)Nc2nc3c(s2)-c2c(cnn2-c2ccccc2C(F)(F)F)C3)nn1CC(F)(F)F
